Measured values: patent publication US11660338B2, “Particles comprising a shell with RNA” (BIONTECH SE, priority 2013, dated 2023)

Test system: Vγ9Vδ2 T cells
Conditions: 7-day co-culture, 5 μM ZA, 10 U/mL IL-2; mean of two donors

Compound: O=P(O)(O)C(O)(Cn1ccnc1)P(=O)(O)O [zoledronic acid]
- expansion rate of Vγ9δ2 T cells: about 15 fold
